# Peptide text beside a SMILES is read from it. * marks the point of attachment. Palmitoyl = CCCCCCCCCCCCCCCC(=O)*
# Test system: C57B/L6J mice fed western-diet
# Assay: Western diet-induced hepatic steatosis mouse model
# Type: in vivo
# Conditions: ip daily 1 mg/kg/day
# Protocol: Wild-type C57B/L6J male mice were purchased from Janvier Labs (Le Genest Saint Isle, France). Mice were caged in animal rooms under specific pathogen free conditions at the animal facility of Rangueil (Anexplo platform, US006, Toulouse, France) with a light/dark schedule of 12 h/12 h. At the initiation of the dietary intervention, all animals were 8 weeks old and were fed ad libitum with a normal chow diet (#V1535 R/M-H, Ssniff, Germany). All animal experimental procedures were conducted in accordance with institutional guidelines on animal experimentation approved by the local ethical committee of animal care and are conformed to the guidelines from Directive 2010/63/EU of the European Parliament on the protection of animals used for scientific purposes or the NIH guideline.
# 8 weeks old mice were fed fed western-diet for 4-weeks (Envigo #TD.88137 containing 0.2% cholesterol, 42% kcal from fat, 34% sucrose by weight). For the 2 last weeks of the 4-week period, mice were daily intraperitoneally administrated at 1 mg/kg/day with the peptide of formula (I) or PBS (control group). Following the treatment period, mice were fasted overnight, anesthetized by intra-peritoneal injection of ketamine and xylazine hydrochloride then killed by exsanguination. Body weight, liver triglyceride content, plasma lipids and transaminases were determined at sacrifice.
# 100 mg of liver tissue were homogenized in 900 μL of phosphate buffer pH 7.4 until complete tissue lysis. Lipids were extracted by mixing 125 μL of lysates with 1 mL of CHCl3:MeOH (2:1). After centrifugation, the chloroform phase was evaporated under nitrogen flux, and the dried residue was solubilized in 200 μL of isopropanol. Triglycerides were measured using commercial kits based on GPO-PAP detection method (Biolabo SA, Maizy, France). Results were expressed as mg of triglycerides/g liver.
# Triglycerides and cholesterol levels were determined using commercial colorimetric kits (Biolabo SA, Maizy, France) based on CHOD-PAP and GPO-PAP detection methods, coupling enzymatic reaction and spectrophotometric detection of reaction end products. Alanine-aminotransferase (ALT) and aspartate-aminotransferase (AST) levels were determined using a COBAS-MIRA+ biochemical analyser (Anexplo facility, Toulouse, France).
# Blood glucose levels were measured by tail vein sampling with portable glucometer (Accu-check, Roche) 30 min before oral glucose load and at 0, 15, 30, 45, 60, 90 and 120 min after oral glucose load. Plasma insulin concentration was determined 30 min before and 15 min after glucose loading in 5 μL of plasma using an ELISA kit (Mercodia, Uppsala, Sweden) according to the manufacturer's instructions.
compound,measurement,setting,value
"CCCCCCCCCCCCCCCC(=O)NCCCC[C@H](NC(=O)[C@H](CCC(=O)O)NC(=O)[C@H](CCCNC(=N)N)NC(=O)[C@H](CO)NC(=O)[C@H](CCC(N)=O)NC(=O)[C@H](C)NC(=O)[C@H](CCCNC(=N)N)NC(=O)[C@H](Cc1ccccc1)NC(=O)[C@H](Cc1ccc(O)cc1)NC(=O)[C@H](CCCNC(=N)N)NC(=O)[C@H](CCC(=O)O)NC(=O)[C@H](CCC(=O)O)NC(=O)[C@H](CCC(=O)O)NC(=O)[C@H](C)NC(=O)[C@H](CCC(N)=O)NC(=O)[C@H](CCC(=O)O)NC(=O)[C@H](CCCNC(=N)N)NC(=O)[C@H](CCCCN)NC(=O)CNC(=O)[C@H](Cc1ccccc1)NC(=O)[C@H](C)NC(=O)CNC(=O)CNC(=O)[C@H](C)NC(=O)[C@H](CCC(=O)O)NC(=O)[C@H](CCCNC(=N)N)NC(=O)[C@@H](NC(=O)[C@H](CO)NC(=O)CNC(=O)[C@H](C)NC(=O)CNC(=O)[C@H](CCCNC(=N)N)NC(C)=O)[C@@H](C)CC)C(N)=O [peptide of formula (II), CH3CO-[SEQ ID NO: 1]-K-[palmitoyl]-NH2] (Ac-RGAGSIREAGGAFGKREQAEEERYFRAQSREK(Palmitoyl)-NH2)",oral glucose tolerance (OGTT),OGTT 10 days after initiation,improved
same,basal insulin level,p<0.05 vs PBS,decreased
same,plasma HDL-cholesterol (HDL-C) level,two weeks,no effect
same,plasma triglycerides level,two weeks,no effect
same,liver/body weight ratio,"two weeks, p<0.01 vs PBS",decrease
same,hepatic triglyceride concentration,"two weeks, p<0.05 vs PBS",reduction
same,plasma ALT level,"two weeks, p<0.05 vs PBS",significantly reduced
same,plasma level of total cholesterol,"two weeks, p<0.05 vs PBS",significantly decrease
same,hepatic steatosis,"two weeks, vs PBS",significantly reduced
